The results in this text go back to patent US5187082A, “Process for producing A83850 antibiotics” (Eli Lilly and Company, priority 1990, dated 1993).

Converted amounts (≈) assume the structure as drawn. Positions of bridges follow the written chain, without caps; N, C: chain ends. Non-standard residues stand in square brackets, D forms with d. Residues, ends and D or L forms follow the SMILES beside them. *: point of attachment. Ileψ(thiazoline)Cys = CC[C@H](C)[C@H](N)C1=N[C@H](C(=O)*)CS1; dOrn = NCCC[C@@H](N)C(=O)O

Assay [1] deals with Enterococcus faecalis 2041. Type of assay: cell-based. The settings on record: Enterococcus faecalis 2041; agar dilution. On the procedure: (§1) The MIC's in Table VII were determined by standard agar-dilution assays.
(Agar dilution tests growth on a series of plates holding different concentrations.)

Assay [2] deals with Enterococcus faecium X66. Type of assay: cell-based. The settings on record: Enterococcus faecium X66; agar dilution. The protocol: as §1
Assay [3] concerns Staphylococcus aureus V41. Type of assay: cell-based. Particulars: Staphylococcus aureus V41; agar dilution. On the procedure:
as §1

The subject of assay [4] is Staphylococcus aureus X1.1. Type of assay: cell-based. Particulars: Staphylococcus aureus X1.1; agar dilution. The protocol: as §1
In assay [5] the test system is Staphylococcus aureus X400. Type of assay: cell-based. Particulars: Staphylococcus aureus X400; agar dilution. On the procedure:
as §1

Assay [6] has as its system Staphylococcus epidermidis 222. Type of assay: cell-based. Particulars: Staphylococcus epidermidis 222; agar dilution. The protocol: as §1
Assay [7] concerns Staphylococcus epidermidis 270. The format is cell-based. Particulars: Staphylococcus epidermidis 270; agar dilution. The protocol: as §1
The test system of assay [8] is Streptococcus pyogenes C203. Type of assay: cell-based. Particulars: Streptococcus pyogenes C203; agar dilution. The protocol: as §1
For assay [9], the system named is Streptococcus pneumoniae Park 1. Nature of the assay: microbe, parasite or virus in culture. Type of assay: cell-based. The settings on record: Streptococcus pneumoniae Park 1; agar dilution. The protocol:
as §1

Assay [10] concerns Staphylococcus aureus. Nature of the assay: In vivo activity against experimentally-induced infection in mice. Particulars: doses administered subcutaneously to mice 1 and 4 hours postinfection. On the procedure: (§2) The A83850 antibiotics have also shown in vivo antimicrobial activity against experimentally-induced infections in laboratory animals. When two doses of test compound were administered to mice experimentally infected with the test organism, the activity observed was measured as an ED50 value [effective dose in mg/kg to protect 50% of the test animals: see Warren Wick, et al., J. Bacteriol. 81, 233-235 (1961)].
(§3) ^a mg/kg × 2; doses administered subcutaneously to mice 1 and 4

For assay [11], the system named is Streptococcus pneumoniae. Described as above. Particulars: doses administered subcutaneously to mice 1 and 4 hours postinfection. On the procedure: as §2, §3
For assay [12], the system named is Streptococcus pyogenes. The assay is described as above. Particulars: doses administered subcutaneously to mice 1 and 4 hours postinfection. On the procedure: as §2, §3
Assay [13] deals with Culture A83850 (Amycolatopsis albus NRRL 18532). Briefly: Resistance of culture A83850 to antibiotics, sensitivity discs on seeded ISP No. 2 agar plates. Type of assay: cell-based. Particulars: disc content printed per antibiotic. On the procedure:
Resistance to antibiotics was measured by padding antibiotic sensitivity discs onto the surface of seeded ISP No. 2 agar plates.

`CC(C)C[C@H](C(=O)N[C@H]1C(=O)N[C@@H](CC(N)=O)C(=O)N[C@H]2C(=O)N[C@H]3C(=O)N[C@H](C(=O)N[C@H](C(=O)O)c4cc(O)cc(O)c4-c4cc3ccc4O)[C@H](O)c3ccc(c(Cl)c3)Oc3cc2cc(c3O[C@@H]2O[C@H](CO)[C@@H](O)[C@H](O)[C@H]2O[C@H]2C[C@](C)(N)[C@@H](O)[C@H](C)O2)Oc2ccc(cc2Cl)[C@H]1O)N(C)C` [Reduced A83850A]: the MIC in assay [1] amounted to 8.0 µg/mL (≈ 5.47 µM); in [2], 2.0 µg/mL (≈ 1.37 µM); in assay [3], 2.0 µg/mL (≈ 1.37 µM); in assay [4], 2.0 µg/mL (≈ 1.37 µM); in assay [5], 2.0 µg/mL (≈ 1.37 µM); in assay [6], 4.0 µg/mL (≈ 2.73 µM). The MIC was determined as 4.0 µg/mL (≈ 2.73 µM) in assay [7], 2.0 µg/mL (≈ 1.37 µM) in assay [8] and 0.25 µg/mL (≈ 0.171 µM) in [9]. In addition, the “ED50 Value” in assay [10] is 7.10 mg/kg × 2; in [11] it was 3.88 mg/kg × 2; in assay [12], 2.30 mg/kg × 2.
On to `CN[C@H](CC(C)C)C(=O)N[C@H]1C(=O)N[C@@H](CC(N)=O)C(=O)N[C@H]2C(=O)N[C@H]3C(=O)N[C@H](C(=O)N[C@H](C(=O)O)c4cc(O)cc(O)c4-c4cc3ccc4O)[C@H](O)c3ccc(c(Cl)c3)Oc3cc2cc(c3O[C@@H]2O[C@H](CO)[C@@H](O)[C@H](O)[C@H]2O[C@H]2C[C@](C)(N)[C@@H](O)[C@H](C)O2)Oc2ccc(cc2Cl)[C@H]1O` [Reduced A83850B], for which the MIC in assay [1] was determined as 4.0 µg/mL (≈ 2.76 µM); in assay [2], 1.0 µg/mL (≈ 0.69 µM); in assay [3] it was 1.0 µg/mL (≈ 0.69 µM); in [4], 1.0 µg/mL (≈ 0.69 µM); in assay [5], 1.0 µg/mL (≈ 0.69 µM); in assay [6], 2.0 µg/mL (≈ 1.38 µM). Also, the MIC in assay [7] worked out at 2.0 µg/mL (≈ 1.38 µM); in assay [8], 0.5 µg/mL (≈ 0.345 µM); in assay [9], 0.125 µg/mL (≈ 0.0863 µM). Besides, the results for the “ED50 Value” in assay [10], in [11] and in assay [12] were 2.12 mg/kg × 2, 1.99 mg/kg × 2 and 1.36 mg/kg × 2, respectively.
Take `CC[C@H](C)[C@H](N)C1=N[C@H](C(=O)N[C@@H](CC(C)C)C(=O)N[C@H](CCC(=O)O)C(=O)N[C@H](C(=O)N[C@H]2CCCCNC(=O)[C@H](CC(N)=O)NC(=O)[C@@H](CC(=O)O)NC(=O)[C@H](Cc3cnc[nH]3)NC(=O)[C@@H](Cc3ccccc3)NC(=O)[C@H]([C@@H](C)CC)NC(=O)[C@@H](CCCN)NC2=O)[C@@H](C)CC)CS1` [bacitracin] ({Ileψ(thiazoline)Cys}-L[dE]IK[dOrn]I[dF]H[dD]N; lactam 4-C): in [13], the “Resistance or inhibition of culture A83850 by antibiotic disc” value is listed as “resistant”.
The same measure, in the same setting: next, `CC(=O)OCC1=C(C(=O)O)N2C(=O)[C@@H](NC(=O)Cc3cccs3)[C@H]2SC1` [cephalothin]: “inhibited”; `CCC[C@@H]1C[C@@H](C(=O)N[C@@H]([C@H]2O[C@H](SC)[C@H](O)[C@@H](O)[C@H]2O)[C@@H](C)O)N(C)C1` [lincomycin]: “inhibited”; `CO[C@H]1C[C@H](O[C@H]2[C@H](C)[C@@H](O[C@@H]3O[C@H](C)C[C@H](N(C)C)[C@H]3O)[C@@H](C)C[C@@]3(CO3)C(=O)[C@H](C)[C@@H](O)[C@@H](C)[C@@H](C)OC(=O)[C@@H]2C)O[C@@H](C)[C@@H]1O` [oleandomycin]: “resistant”.
Still for that read-out and setting: under `CC1(C)S[C@@H]2[C@H](NC(=O)Cc3ccccc3)C(=O)N2[C@H]1C(=O)O` [penicillin] stands “inhibited”; under `CO[C@H]1/C=C/O[C@@]2(C)Oc3c(C)c(O)c4c(O)c(c(/C=N/N5CCN(C)CC5)c(O)c4c3C2=O)NC(=O)/C(C)=C\C=C\[C@H](C)[C@H](O)[C@@H](C)[C@@H](O)[C@@H](C)[C@H](OC(C)=O)[C@@H]1C` [rifampin], “resistant”.
Still for that read-out and setting: next, `[H]/N=C(/N)N[C@H]1[C@H](O)[C@@H](O)[C@H](O[C@@H]2O[C@@H](C)[C@](O)(C=O)[C@H]2O[C@@H]2O[C@@H](CO)[C@H](O)[C@@H](O)[C@@H]2NC)[C@@H](N/C(N)=N\[H])[C@@H]1O` [streptomycin]: “inhibited”.
As to `CN(C)[C@@H]1C(O)=C(C(N)=O)C(=O)[C@@]2(O)C(O)=C3C(=O)c4c(O)cccc4[C@@](C)(O)[C@H]3C[C@@H]12` [tetracycline], the “Resistance or inhibition of culture A83850 by antibiotic disc” value in assay [13] was “resistant”.
On the same count and under the same terms, next, `NC[C@H]1O[C@H](O[C@H]2[C@H](O)[C@@H](O[C@H]3O[C@H](CO)[C@@H](O)[C@H](N)[C@H]3O)[C@H](N)C[C@@H]2N)[C@H](N)C[C@@H]1O` [tobramycin]: “inhibited”.
The same measure, in the same setting: under gentamicin stands “inhibited”; under neomycin, “resistant”.
